In patent US4410516A, “1-N(αHydroxy-ω-aminoalkanoyl) derivatives of 5,3',4'-trideoxy- or 5,3', 4'-trideoxy-6'-N- methyl- or 5, 3', 4',6"-tetradeoxykannamyci B and production thereof” (Zaidan Hojin Biseibutsu Kagaku Kenkyu Kai, priority 1981, dated 1983):
Values after ≈ are worked out from the molar mass of the structure shown. Where two headings read alike, the source gives them in different places.

Columns and labels:
Format in all cases: cell-based
[1] = test system: Pseudomonas aeruginosa GN315; experiment: Minimum inhibitory concentration, serial dilution on nutrient agar; conditions: GN315, nutrient agar, 37° C., 18 hours incubation, read-out: MIC
[2] = test system: Pseudomonas aeruginosa B-13; experiment: as above; conditions: B13, 37° C., 18 hours incubation
[3] = test system: Pseudomonas aeruginosa K-Ps102; experiment: as above
Escherichia coli K-12 R5 = experiment: as above; conditions: K12R5, 18 h
[4] = test system: Pseudomonas aeruginosa A3; experiment: as above; conditions: 37° C., 18 hours incubation
[5] = test system: Mycobacterium smegmatis ATCC 607; experiment: as above; conditions: Mycolicibacterium smegmatis, ATCC607; nutrient agar, 37° C., 18 hours incubation; read-out: MIC
[6] = test system: Pseudomonas maltophilia GN907; experiment: as above; conditions: Stenotrophomonas maltophilia, 37° C., 18 hours incubation
[7] = test system: Pseudomonas aeruginosa 99; experiment: as above
[8] = test system: Pseudomonas aeruginosa TI-13; experiment: as above; conditions: TI13, 18 h
[9] = test system: Bacillus subtilis PCI 219; experiment: as above; conditions: PCI219, 37° C., 18 hours incubation
[10] = test system: Bacillus cereus ATCC 10702; experiment: as above; conditions: ATCC10702, nutrient agar, 37° C., 18 hours incubation, read-out: MIC
[11] = test system: Escherichia coli K-12 LA 290 R56; experiment: as above; conditions: K12LA290R56, 18 h
Proteus rettgeri GN311 = experiment: as above; conditions: Providencia rettgeri, 37° C., 18 hours incubation
Salmonella typhi T-63 = experiment: as above; conditions: Salmonella enterica, 18 h
[12] = test system: Pseudomonas aeruginosa No. 12; experiment: as above
[13] = test system: Klebsiella pneumoniae 22 #3038; experiment: as above
[14] = test system: Micrococcus flavus FDA 16; experiment: as above; conditions: FDA16, nutrient agar, 37° C., 18 hours incubation, read-out: MIC
[15] = test system: Bacillus subtilis NRRL B-558; experiment: as above; conditions: NRRLB558, 37° C., 18 hours incubation
[16] = test system: Pseudomonas aeruginosa H11; experiment: as above; conditions: H11, nutrient agar, 37° C., 18 hours incubation, read-out: MIC
Escherichia coli K-12 = experiment: as above; conditions: K12, nutrient agar, 37° C., 18 hours incubation, read-out: MIC
[17] = test system: Pseudomonas aeruginosa ROS134/PU21; experiment: as above; conditions: ROS134/PU21, 18 h
[18] = test system: Staphylococcus aureus Smith; experiment: as above; conditions: 37° C., 18 hours incubation
[19] = test system: Pseudomonas aeruginosa 21-75; experiment: as above; conditions: 2175, 37° C., 18 hours incubation
Escherichia coli NIHJ = experiment: as above; conditions: nutrient agar, 37° C., 18 hours incubation, read-out: MIC
[20] = test system: Klebsiella pneumoniae PCI 602; experiment: as above; conditions: PCI602, nutrient agar, 37° C., 18 hours incubation, read-out: MIC
[21] = test system: Escherichia coli K-12 R 388; experiment: as above; conditions: K12R388, 18 h
[22] = test system: Staphylococcus epidermidis 109; experiment: as above; conditions: Staphylococcus epidermidis, 109; nutrient agar, 37° C., 18 hours incubation; read-out: MIC
Proteus rettgeri GN466 = experiment: as above; conditions: Providencia rettgeri
Providencia Pv 16 = experiment: as above; conditions: PV16, 37° C., 18 hours incubation
[23] = test system: Escherichia coli K-12 ML 1410; experiment: as above
Serratia marcescens = experiment: as above; conditions: 37° C., 18 hours incubation
[24] = test system: Escherichia coli JR66/W677; experiment: as above; conditions: JR66/W677, nutrient agar, 37° C., 18 hours incubation, read-out: MIC
Proteus vulgaris OX19 = experiment: as above; conditions: 37° C., 18 hours incubation
[25] = test system: Pseudomonas aeruginosa H9; experiment: as above
Sarcina lutea PCI 1001 = experiment: as above; conditions: Micrococcus luteus, PCI1001; nutrient agar, 37° C., 18 hours incubation; read-out: MIC
Escherichia coli JR255 = experiment: as above; conditions: JR255, nutrient agar, 37° C., 18 hours incubation, read-out: MIC
Serratia 4 = experiment: as above; conditions: 37° C., 18 hours incubation
[26] = test system: Escherichia coli K-12 ML 1629; experiment: as above; conditions: K12ML1629, nutrient agar, 37° C., 18 hours incubation, read-out: MIC
[27] = test system: Staphylococcus aureus AP01; experiment: as above; conditions: 37° C., 18 hours incubation
[28] = test system: Escherichia coli K-12 LA 290 R55; experiment: as above; conditions: K12LA290R55, 18 h
Bacillus anthracis = experiment: microbe, parasite or virus in culture; conditions: 18 h

**Q.** Which results are given for `C[C@H]1O[C@H](O[C@@H]2C[C@H](O[C@H]3O[C@H](CN)CC[C@H]3N)[C@@H](N)C[C@H]2N)[C@H](O)[C@@H](N)[C@@H]1O` [TetradeoxyKMB, 5,3',4',6"-tetradeoxykanamycin B]?
**A.** MIC [1]: > 100 µg/mL; MIC [2]: 50 µg/mL (≈ 119 µM); MIC ([3]; KPS102, 18 h): 12.5 µg/mL (≈ 29.8 µM); MIC (Escherichia coli K-12 R5): > 100 µg/mL; MIC [4]: 3.13 µg/mL (≈ 7.46 µM); MIC [5]: 0.78 µg/mL (≈ 1.86 µM); MIC [6]: > 100 µg/mL; MIC ([7]; Pseudomonas aeruginosa, 99, nutrient agar, 37° C., 18 hours incubation, read-out: MIC): 25 µg/mL (≈ 59.6 µM); MIC [8]: 12.5 µg/mL (≈ 29.8 µM); MIC [9]: < 0.2 µg/mL; MIC [10]: 3.13 µg/mL (≈ 7.46 µM); MIC [11]: 100 µg/mL (≈ 238 µM); MIC (Proteus rettgeri GN311): > 100 µg/mL; MIC (Salmonella typhi T-63): 12.5 µg/mL (≈ 29.8 µM); MIC ([12]; NO.12, nutrient agar, 37° C., 18 hours incubation, read-out: MIC): 25 µg/mL (≈ 59.6 µM); MIC ([13]; nutrient agar, 37° C., 18 hours incubation, read-out: MIC): 100 µg/mL (≈ 238 µM); MIC [14]: 50 µg/mL (≈ 119 µM); MIC [15]: < 0.2 µg/mL; MIC [16]: 25 µg/mL (≈ 59.6 µM); MIC (Escherichia coli K-12): 25 µg/mL (≈ 59.6 µM); MIC [17]: > 100 µg/mL; MIC [18]: < 0.2 µg/mL; MIC [19]: > 100 µg/mL; MIC (Escherichia coli NIHJ): 6.25 µg/mL (≈ 14.9 µM); MIC [20]: 3.13 µg/mL (≈ 7.46 µM); MIC [21]: 3.13 µg/mL (≈ 7.46 µM); MIC [22]: 6.25 µg/mL (≈ 14.9 µM); MIC (Proteus rettgeri GN466; GN466, nutrient agar, 37° C., 18 hours incubation, read-out: MIC): 25 µg/mL (≈ 59.6 µM); MIC (Providencia Pv 16): > 100 µg/mL; MIC ([23]; K12ML1410, 18 h): 12.5 µg/mL (≈ 29.8 µM); MIC (Serratia marcescens): 100 µg/mL (≈ 238 µM); MIC [24]: > 100 µg/mL; MIC (Proteus vulgaris OX19): 1.56 µg/mL (≈ 3.72 µM); MIC ([25]; H9, nutrient agar, 37° C., 18 hours incubation, read-out: MIC): 100 µg/mL (≈ 238 µM); MIC (Sarcina lutea PCI 1001): 50 µg/mL (≈ 119 µM); MIC (Escherichia coli JR255): 25 µg/mL (≈ 59.6 µM); MIC (Serratia 4): 50 µg/mL (≈ 119 µM); MIC [26]: 6.25 µg/mL (≈ 14.9 µM); MIC [27]: 6.25 µg/mL (≈ 14.9 µM); MIC [28]: > 100 µg/mL; MIC (Bacillus anthracis): 0.39 µg/mL (≈ 0.93 µM)

**Q.** Which results are given for `NCC[C@H](O)C(=O)N[C@@H]1C[C@H](N)[C@@H](O[C@H]2O[C@H](CN)CC[C@H]2N)C[C@H]1O[C@H]1O[C@H](CO)[C@@H](O)[C@H](N)[C@H]1O` [AHB-trideoxyKMB, 1-N-[(S)-4-amino-2-hydroxybutyryl]-5,3',4'-trideoxykanamycin B]?
**A.** MIC [1]: 25 µg/mL (≈ 46.6 µM); MIC [2]: 6.25 µg/mL (≈ 11.6 µM); MIC ([3]; KPS102, nutrient agar, 37° C., 18 hours incubation, read-out: MIC): 1.56 µg/mL (≈ 2.91 µM); MIC (Escherichia coli K-12 R5): 100 µg/mL (≈ 186 µM); MIC [4]: 0.39 µg/mL (≈ 0.727 µM); MIC [5]: 0.2 µg/mL (≈ 0.373 µM); MIC [6]: > 100 µg/mL; MIC ([7]; Pseudomonas aeruginosa, 99, 18 h): 3.13 µg/mL (≈ 5.83 µM); MIC [8]: 3.13 µg/mL (≈ 5.83 µM); MIC [9]: < 0.2 µg/mL; MIC [10]: 0.78 µg/mL (≈ 1.45 µM); MIC [11]: 0.78 µg/mL (≈ 1.45 µM); MIC (Proteus rettgeri GN311): 25 µg/mL (≈ 46.6 µM); MIC (Salmonella typhi T-63): 25 µg/mL (≈ 46.6 µM); MIC ([12]; NO.12, 18 h): 3.13 µg/mL (≈ 5.83 µM); MIC ([13]; 18 h): 3.13 µg/mL (≈ 5.83 µM); MIC [14]: 1.56 µg/mL (≈ 2.91 µM); MIC [15]: < 0.2 µg/mL; MIC [16]: 6.25 µg/mL (≈ 11.6 µM); MIC (Escherichia coli K-12): 0.78 µg/mL (≈ 1.45 µM); MIC [17]: > 100 µg/mL; MIC [18]: < 0.2 µg/mL; MIC [19]: 6.25 µg/mL (≈ 11.6 µM); MIC (Escherichia coli NIHJ): 0.78 µg/mL (≈ 1.45 µM); MIC [20]: 0.78 µg/mL (≈ 1.45 µM); MIC [21]: 0.78 µg/mL (≈ 1.45 µM); MIC [22]: 0.39 µg/mL (≈ 0.727 µM); MIC (Proteus rettgeri GN466; GN466, 18 h): 3.13 µg/mL (≈ 5.83 µM); MIC (Providencia Pv 16): 12.5 µg/mL (≈ 23.3 µM); MIC ([23]; K12ML1410, nutrient agar, 37° C., 18 hours incubation, read-out: MIC): 1.56 µg/mL (≈ 2.91 µM); MIC (Serratia marcescens): 25 µg/mL (≈ 46.6 µM); MIC [24]: 1.56 µg/mL (≈ 2.91 µM); MIC (Proteus vulgaris OX19): 0.39 µg/mL (≈ 0.727 µM); MIC ([25]; H9, 18 h): 3.13 µg/mL (≈ 5.83 µM); MIC (Sarcina lutea PCI 1001): 0.39 µg/mL (≈ 0.727 µM); MIC (Escherichia coli JR255): 0.39 µg/mL (≈ 0.727 µM); MIC (Serratia 4): 12.5 µg/mL (≈ 23.3 µM); MIC [26]: 1.56 µg/mL (≈ 2.91 µM); MIC [27]: 0.39 µg/mL (≈ 0.727 µM); MIC [28]: 3.13 µg/mL (≈ 5.83 µM); MIC (Bacillus anthracis): < 0.2 µg/mL
